The structures appear in SMILES notation.

Among the data in patent US20110130397A1, “PYRROLINONE COMPOUNDS AS INHIBITORS OF BACTERIAL PEPTIDYL TRNA HYDROLASE AND USES THEREOF” (priority 2006, published 2011) are melting point values, retold here.

The compound `COc1ccccc1CC(=O)C1=C(O)C(=O)N(c2nc3ccc(F)cc3s2)C1c1ccc(F)cc1` (stereo not shown) [Compound 485] displayed a melting point of 223 to 224 °C.

Consider `COc1ccccc1CC(=O)C1=C(O)C(=O)N(c2nc3c(Cl)cccc3s2)C1c1ccc(F)cc1` (stereo not shown) [Compound 486], for which the melting point lay in the range of 243 to 245 °C.

On to `COc1ccccc1CC(=O)C1=C(O)C(=O)N(c2nc3ccc(Cl)cc3s2)C1c1ccc(Cl)cc1` (stereo not shown) [Compound 487], for which the melting point lay in the range of 247 to 248 °C.

Compound `COc1ccccc1CC(=O)C1=C(O)C(=O)N(c2nc3ccc(F)cc3s2)C1c1ccc(Cl)cc1` (stereo not shown) [Compound 488] showed a melting point of 249 to 250 °C.

Regarding `COc1ccccc1CC(=O)C1=C(O)C(=O)N(c2nc3c(Cl)cccc3s2)C1c1ccc(Cl)cc1` (stereo not shown) [Compound 489], the melting point was in the range of 176 to 178 °C.

Compound `Cc1ccc(C(=O)C2=C(O)C(=O)N(CCCN(CCCNC(=O)OC(C)(C)C)C(=O)OC(C)(C)C)C2c2ccc(F)cc2)o1` (stereo not shown) [Compound 490] showed a melting point of 146 to 148 °C.

The compound `Cc1ccc(C(=O)C2=C(O)C(=O)N(CCCNCCCN)C2c2ccc(F)cc2)o1` (stereo not shown) [Compound 491] gave a melting point of 126 to 128 °C.

Compound `CCOC(=O)CCC(=O)C1=C(O)C(=O)N(c2nc3ccc(Cl)cc3s2)C1c1ccccc1F` (stereo not shown) [Compound 493] showed a melting point of 206 to 207 °C.

As to `CCOC(=O)CCC(=O)C1=C(O)C(=O)N(c2nc3ccc(Cl)cc3s2)C1c1ccc(F)cc1` (stereo not shown) [Compound 494], the melting point is 224 to 225 °C.

`CCOC(=O)CCC(=O)C1=C(O)C(=O)N(c2nc3ccc(Cl)cc3s2)C1c1ccc(Cl)cc1` (stereo not shown) [Compound 495]: the melting point lay in the range of 244 to 245 °C.

For `CCOC(=O)CCC(=O)C1=C(O)C(=O)N(c2nc3ccc(F)cc3s2)C1c1ccccc1F` (stereo not shown) [Compound 496], the melting point fell in the range of 184 to 185 °C.

`CCOC(=O)CCC(=O)C1=C(O)C(=O)N(c2nc3ccc(F)cc3s2)C1c1ccc(F)cc1` (stereo not shown) [Compound 497] displayed a melting point of 201 to 202 °C.

Regarding `CCOC(=O)CCC(=O)C1=C(O)C(=O)N(c2nc3ccc(F)cc3s2)C1c1ccc(Cl)cc1` (stereo not shown) [Compound 498], the melting point was in the range of 219 to 220 °C.

`CCOC(=O)CCC(=O)C1=C(O)C(=O)N(c2nc3c(Cl)cccc3s2)C1c1ccccc1F` (stereo not shown) [Compound 499] registered a melting point of 180 to 182 °C.

Compound `CCOC(=O)CCC(=O)C1=C(O)C(=O)N(c2nc3c(Cl)cccc3s2)C1c1ccc(F)cc1` (stereo not shown) [Compound 500] gave a melting point of 178 to 179 °C.

The compound `CCOC(=O)CCC(=O)C1=C(O)C(=O)N(c2nc3c(Cl)cccc3s2)C1c1ccc(Cl)cc1` (stereo not shown) [Compound 501] had a melting point of 215 to 216 °C.

The compound `Cc1ccc(C(=O)C2=C(O)C(=O)N(Cc3ccco3)C2c2ccccc2F)o1` (stereo not shown) [Compound 502] showed a melting point of 177 to 178 °C.

As to `Cc1ccc(C(=O)C2=C(O)C(=O)N(Cc3ccco3)C2c2ccc(F)cc2)o1` (stereo not shown) [Compound 503], the melting point lay in the range of 213 to 214 °C.

The compound `Cc1ccc(C(=O)C2=C(O)C(=O)N(Cc3cccs3)C2c2ccccc2F)o1` (stereo not shown) [Compound 504] showed a melting point of 193 to 194 °C.

In turn, `Cc1ccc(C(=O)C2=C(O)C(=O)N(Cc3cccs3)C2c2ccc(F)cc2)o1` (stereo not shown) [Compound 505] returned a melting point of 225 to 226 °C.

For the compound `Cc1ccc(C(=O)C2=C(O)C(=O)N(c3ccc4ncsc4c3)C2c2ccccc2F)o1` (stereo not shown) [Compound 564], the melting point lay in the range of 231 to 232 °C.

In turn, `Cc1ccc(C(=O)C2=C(O)C(=O)N(c3ccc4ncsc4c3)C2c2ccc(F)cc2)o1` (stereo not shown) [Compound 565] showed a melting point of 221 to 222 °C.

`Cc1ccc(C(=O)C2=C(O)C(=O)N(Cc3nc4ccccc4[nH]3)C2c2ccccc2F)o1` (stereo not shown) [Compound 566] had a melting point of 91 to 93 °C.

Regarding `Cc1ccc(C(=O)C2=C(O)C(=O)N(Cc3nc4ccccc4[nH]3)C2c2ccc(F)cc2)o1` (stereo not shown) [Compound 567], the melting point is 96 to 100 °C.

The compound `O=C(O)CCC(=O)C1=C(O)C(=O)N(c2nc3ccc(Cl)cc3s2)C1c1ccccc1F` (stereo not shown) [Compound 568] registered a melting point of 258 to 260 °C.
